Measured values taken from ChEMBL document CHEMBL3639234, “Pyrimidine PDE10 inhibitors” (2015).

Target: cAMP and cAMP-inhibited cGMP 3',5'-cyclic phosphodiesterase 10A (Homo sapiens, UniProt Q9Y233)
Assay: Inhibition Assay: PDE10A2 was amplified from human fetal brain cDNA (Clontech, Mountain View, Calif.) using a forward primer corresponding to nucleotides 56-77 of human PDE10A2 (Accession No. AF127480, Genbank Identifier 4894716), containing a Kozak consensus sequence, and a reverse primer corresponding to nucleotides 2406-2413 of human PDE10A2 (Accession No. AF127480, Genbank Identifier 4894716). Amplification with Easy-A polymerase (Stratagene, La Jolla, Calif.) was 95° C. for 2 minutes followed by thirty three cycles of 95° C. for 40 seconds, 55° C. for 30 seconds, and 72° C. for 2 minutes 48 seconds. Final extension was 72° C. for 7 minutes. The PCR product was TA cloned into pcDNA3.2-TOPO (Invitrogen, Carlsbad, Calif.) according to standard protocol. AD293 cells with 70-80% confluency were transiently transfected with human PDE10A2/pcDNA3.2-TOPO using Lipofectamine 2000 according to manufacturer specifications (Invitrogen, Carlsbad, Calif.). Cells were harvested 48 hours post-transfection.
Format: cell-based

Chain of cAMP and cAMP-inhibited cGMP 3',5'-cyclic phosphodiesterase 10A (Q9Y233 whole entry): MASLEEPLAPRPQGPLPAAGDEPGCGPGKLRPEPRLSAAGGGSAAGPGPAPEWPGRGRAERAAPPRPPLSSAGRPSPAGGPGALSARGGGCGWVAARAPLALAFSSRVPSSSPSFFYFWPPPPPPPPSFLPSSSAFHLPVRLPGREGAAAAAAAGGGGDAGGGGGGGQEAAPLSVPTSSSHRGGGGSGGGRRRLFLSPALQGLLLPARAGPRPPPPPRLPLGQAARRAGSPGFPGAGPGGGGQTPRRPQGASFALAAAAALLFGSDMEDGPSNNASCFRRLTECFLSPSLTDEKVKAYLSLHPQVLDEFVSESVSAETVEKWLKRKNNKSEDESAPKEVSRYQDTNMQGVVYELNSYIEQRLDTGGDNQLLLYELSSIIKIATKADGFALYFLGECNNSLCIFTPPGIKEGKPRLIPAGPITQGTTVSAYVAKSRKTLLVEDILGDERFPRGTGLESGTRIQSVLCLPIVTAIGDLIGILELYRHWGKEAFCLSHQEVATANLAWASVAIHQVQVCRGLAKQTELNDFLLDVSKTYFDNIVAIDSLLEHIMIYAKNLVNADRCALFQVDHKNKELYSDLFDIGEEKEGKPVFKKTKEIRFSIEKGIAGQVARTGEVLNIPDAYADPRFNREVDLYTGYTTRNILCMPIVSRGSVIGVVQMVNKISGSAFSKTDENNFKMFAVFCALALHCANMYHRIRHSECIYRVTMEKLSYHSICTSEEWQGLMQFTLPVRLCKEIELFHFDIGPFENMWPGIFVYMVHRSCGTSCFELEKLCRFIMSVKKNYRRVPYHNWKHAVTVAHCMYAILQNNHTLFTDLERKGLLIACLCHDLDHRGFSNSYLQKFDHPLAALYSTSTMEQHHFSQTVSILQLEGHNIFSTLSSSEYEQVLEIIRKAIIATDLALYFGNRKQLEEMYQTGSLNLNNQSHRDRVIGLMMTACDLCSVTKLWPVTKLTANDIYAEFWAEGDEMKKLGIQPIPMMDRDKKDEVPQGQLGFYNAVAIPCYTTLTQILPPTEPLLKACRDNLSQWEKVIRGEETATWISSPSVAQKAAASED

- Ki: 0.04 nM
Structure (SMILES): Cc1ccc([C@H]2C[C@@H]2COc2cc(NCc3cnn(C)c3)nc(C)n2)nc1
